Activity calls are given as the source filed them. The rule behind the calls is not given here.
Key:
[1] = system: MCF7; assay: Growth inhibition of Homo sapiens (human) MCF7 cells after 48 hr by MTT assay; type: functional, cell-based
[2] = system: HeLa; assay: Growth inhibition of Homo sapiens (human) HeLa cells after 48 hr by MTT assay; type: functional, cell-based
[3] = system: MDA-MB-231; assay: Growth inhibition of Homo sapiens (human) MDA-MB-231 cells after 48 hr by MTT assay; type: functional, cell-based
[4] = system: Raji; assay: Growth inhibition of Homo sapiens (human) Raji cells after 48 hr by MTT assay; type: functional, cell-based
[5] = system: HL-60; assay: Growth inhibition of Homo sapiens (human) HL60 cells after 48 hr by MTT assay; type: functional, cell-based; conditions: HL-60, 48 h
[6] = system: MDA-MB-231; assay: Anticancer activity against Homo sapiens (human) MDA-MB-231 cells assessed as cell viability at 50 uM after 48 hr by MTT assay (reference value: 100%); type: functional; conditions: MDA-MB-231, 48 h, read-out: Activity
[7] = system: MCF7; assay: Anticancer activity against Homo sapiens (human) MCF7 cells assessed as cell viability at 50 uM after 48 hr by MTT assay (reference value: 100%); type: functional; conditions: MCF7, 48 h, read-out: Activity
[8] = system: HeLa; assay: Anticancer activity against Homo sapiens (human) HeLa cells assessed as cell viability at 50 uM after 48 hr by MTT assay (reference value: 100%); type: functional; conditions: read-out: Activity
[9] = system: HL-60; assay: Anticancer activity against Homo sapiens (human) HL60 cells assessed as cell viability at 50 uM after 48 hr by MTT assay (reference value: 100%); type: functional; conditions: HL-60, 48 h, read-out: Activity

`COc1ccc(OC(=O)c2cn(-c3ccccc3)nc2-c2ccsc2)cc1` was tested, and the “growth inhibition (GI)” value [1] was “inactive”, the “growth inhibition (GI)” value [2] was “inactive” and the “growth inhibition (GI)” value [3] was “inactive”. For the same molecule, the IC50 [4] was > 100 µM and the IC50 [5] was > 100 µM.

With `CCc1ccc(OC(=O)c2cn(-c3ccccc3)nc2-c2ccsc2)cc1` the “growth inhibition (GI)” value [1] was “inactive”, the “growth inhibition (GI)” value [2] was “inactive” and the “growth inhibition (GI)” value [3] was “inactive”. For the same molecule, the IC50 [4] was > 100 µM and the IC50 [5] was > 100 µM.

In the case of `O=C(c1cn(-c2ccccc2)nc1-c1ccsc1)N1CCN(c2ccc(C(F)(F)F)cc2)CC1`, the GI50 [4] is reported as 32 µM, the GI50 [5] is reported as 36.7 µM and the viability at 50 µM [6] is reported as 84.2%. The viability at 50 µM [7] was 85.9% and the viability at 50 µM [8] was 80.7%.

Work on `O=C(c1cn(-c2ccccc2)nc1-c1ccsc1)N1CCN(c2ccccc2)CC1` yielded a viability at 50 µM [6] of 81.4% and a viability at 50 µM [8] of 67.9%.

For `O=C(c1cn(-c2ccccc2)nc1-c1ccsc1)N1CCC(Cc2ccccc2)CC1`, the GI50 [4] was 25.2 µM, the GI50 [5] was 28.3 µM and the viability at 50 µM [9] was 39.1%. For the same molecule, the viability at 50 µM [6] was 82.8%, the viability at 50 µM [7] was 90.7% and the viability at 50 µM [8] was 71.8%.

In the case of `O=C(Oc1ccc2ccccc2c1)c1cn(-c2ccccc2)nc1-c1ccsc1`, the “growth inhibition (GI)” value [1] is reported as “inactive”, the “growth inhibition (GI)” value [2] is reported as “inactive” and the “growth inhibition (GI)” value [3] is reported as “inactive”. The IC50 [4] was > 100 µM and the IC50 [5] was > 100 µM.

For `O=C(O)c1cn(-c2ccccc2)nc1-c1ccsc1`, the IC50 [4] was > 100 µM, the IC50 [5] was > 100 µM and the viability at 50 µM [6] was 80.9%.

For `O=C(NCc1ccccc1)c1cn(-c2ccccc2)nc1-c1ccsc1`, the viability at 50 µM [6] was 85% and the viability at 50 µM [8] was 82.3%.

For `CC(C)c1cccc(OC(=O)c2cn(-c3ccccc3)nc2-c2ccsc2)c1`, the “growth inhibition (GI)” value [1] was “inactive”, the “growth inhibition (GI)” value [2] was “inactive” and the “growth inhibition (GI)” value [3] was “inactive”. For the same molecule, the IC50 [4] was > 100 µM and the IC50 [5] was > 100 µM.

With `Cc1cccc(C(C)C)c1OC(=O)c1cn(-c2ccccc2)nc1-c1ccsc1` the “growth inhibition (GI)” value [1] was “inactive”, the “growth inhibition (GI)” value [2] was “inactive” and the “growth inhibition (GI)” value [3] was “inactive”. For the same molecule, the IC50 [4] was > 100 µM and the IC50 [5] was > 100 µM.

With `O=C(c1cn(-c2ccccc2)nc1-c1ccsc1)N1CCOCC1` the IC50 [4] was > 100 µM, the IC50 [5] was > 100 µM and the viability at 50 µM [6] was 77.6%.

`CN1CCN(C(=O)c2cn(-c3ccccc3)nc2-c2ccsc2)CC1` was tested, and the IC50 [4] was > 100 µM and the IC50 [5] was > 100 µM.

With `O=C(c1cn(-c2ccccc2)nc1-c1ccsc1)N1CCN(c2ccncc2)CC1` the IC50 [4] was > 100 µM, the IC50 [5] was > 100 µM and the viability at 50 µM [6] was 87.4%.

In the case of `O=C(Oc1ccc(-c2ccccc2)cc1)c1cn(-c2ccccc2)nc1-c1ccsc1`, the “growth inhibition (GI)” value [1] is reported as “inactive”, the “growth inhibition (GI)” value [2] is reported as “inactive” and the “growth inhibition (GI)” value [3] is reported as “inactive”. The IC50 [4] was > 100 µM and the IC50 [5] was > 100 µM.

Reference: ChEMBL document CHEMBL3045075, “Synthesis of ester and amide derivatives of 1-phenyl-3-(thiophen-3-yl)-1H-pyrazole-4-carboxylic acid and study of their anticancer activity” (Med Chem Res, 2013)
